Data as given in the NIST ThermoML archive (doi:10.1016/j.fluid.2012.05.002).
± gives the expanded uncertainty stated by the source.

Experiment: osmotic coefficient (dimensionless); mn = molality of the nth substance listed, in mol/kg
Conditions: 298.1 K, 20 kPa, Liquid, isopiestic method

O=CO [formic acid] + O
osmotic coefficient (m1 = 0.3334): 1.047 ± 0.0031 | osmotic coefficient (m1 = 0.6596): 1.078 ± 0.0039 | osmotic coefficient (m1 = 0.7817): 1.089 ± 0.0046 | osmotic coefficient (m1 = 0.9947): 1.109 ± 0.0045 | osmotic coefficient (m1 = 1.248): 1.133 ± 0.011 | osmotic coefficient (m1 = 1.439): 1.151 ± 0.01 | osmotic coefficient (m1 = 1.688): 1.173 ± 0.0071 | osmotic coefficient (m1 = 2.27): 1.226 ± 0.0098 | osmotic coefficient (m1 = 2.667): 1.26 ± 0.01 | osmotic coefficient (m1 = 2.913): 1.28 ± 0.017 | osmotic coefficient (m1 = 3.395): 1.322 ± 0.013 | osmotic coefficient (m1 = 3.782): 1.35 ± 0.014 | osmotic coefficient (m1 = 4.446): 1.41 ± 0.021 | osmotic coefficient (m1 = 4.836): 1.44 ± 0.018 | osmotic coefficient (m1 = 5.352): 1.48 ± 0.018 | osmotic coefficient (m1 = 5.619): 1.49 ± 0.019

O=C(O)CC(O)C(=O)O (centres undefined) [hydroxybutanedioic acid] + O
osmotic coefficient (m1 = 0.1223): 1.343 ± 0.013 | osmotic coefficient (m1 = 0.2625): 0.828 ± 0.0078 | osmotic coefficient (m1 = 0.3917): 0.426 ± 0.024 | osmotic coefficient (m1 = 0.5398): 0.351 ± 0.026 | osmotic coefficient (m1 = 0.8231): 0.441 ± 0.022 | osmotic coefficient (m1 = 0.9977): 0.506 ± 0.019 | osmotic coefficient (m1 = 1.245): 0.528 ± 0.018 | osmotic coefficient (m1 = 1.848): 0.531 ± 0.02 | osmotic coefficient (m1 = 2.634): 0.54 ± 0.018 | osmotic coefficient (m1 = 3.207): 0.554 ± 0.017 | osmotic coefficient (m1 = 3.996): 0.566 ± 0.017 | osmotic coefficient (m1 = 5.166): 0.584 ± 0.017 | osmotic coefficient (m1 = 6.325): 0.613 ± 0.017 | osmotic coefficient (m1 = 7.352): 0.626 ± 0.015

O=C(O)CC(O)(CC(=O)O)C(=O)O [citric acid] + O
osmotic coefficient (m1 = 0.2947): 1.058 ± 0.006 | osmotic coefficient (m1 = 0.3878): 1.058 ± 0.0043 | osmotic coefficient (m1 = 0.6515): 1.058 ± 0.0041 | osmotic coefficient (m1 = 0.8686): 1.067 ± 0.0061 | osmotic coefficient (m1 = 1.039): 1.073 ± 0.0037 | osmotic coefficient (m1 = 1.225): 1.082 ± 0.004 | osmotic coefficient (m1 = 1.753): 1.12 ± 0.01 | osmotic coefficient (m1 = 2.327): 1.17 ± 0.014 | osmotic coefficient (m1 = 2.699): 1.194 ± 0.0075 | osmotic coefficient (m1 = 3.133): 1.23 ± 0.0089 | osmotic coefficient (m1 = 3.816): 1.288 ± 0.011 | osmotic coefficient (m1 = 4.436): 1.34 ± 0.014 | osmotic coefficient (m1 = 5.134): 1.4 ± 0.016 | osmotic coefficient (m1 = 5.522): 1.44 ± 0.017 | osmotic coefficient (m1 = 5.987): 1.47 ± 0.02 | osmotic coefficient (m1 = 6.701): 1.52 ± 0.02 | osmotic coefficient (m1 = 7.6): 1.58 ± 0.022 | osmotic coefficient (m1 = 8.205): 1.62 ± 0.026

CCCC(=O)O [butanoic acid] + O
osmotic coefficient (m1 = 0.2966): 1.051 ± 0.0094 | osmotic coefficient (m1 = 0.3972): 1.03 ± 0.012 | osmotic coefficient (m1 = 0.7027): 0.9809 ± 0.0023 | osmotic coefficient (m1 = 0.9898): 0.9364 ± 0.0052 | osmotic coefficient (m1 = 1.539): 0.8612 ± 0.0079 | osmotic coefficient (m1 = 2.501): 0.755 ± 0.011 | osmotic coefficient (m1 = 2.652): 0.74 ± 0.011 | osmotic coefficient (m1 = 4.544): 0.598 ± 0.016 | osmotic coefficient (m1 = 5.353): 0.553 ± 0.018 | osmotic coefficient (m1 = 6.364): 0.506 ± 0.019 | osmotic coefficient (m1 = 7.777): 0.454 ± 0.023 | osmotic coefficient (m1 = 9.598): 0.402 ± 0.023 | osmotic coefficient (m1 = 12): 0.351 ± 0.026 | osmotic coefficient (m1 = 15.29): 0.302 ± 0.027 | osmotic coefficient (m1 = 17.6): 0.278 ± 0.028

CC(=O)O [acetic acid] + O
osmotic coefficient (m1 = 0.3254): 1.034 ± 0.0034 | osmotic coefficient (m1 = 0.4489): 1.014 ± 0.003 | osmotic coefficient (m1 = 0.6191): 0.991 ± 0.013 | osmotic coefficient (m1 = 0.7688): 0.9736 ± 0.0014 | osmotic coefficient (m1 = 1.029): 0.9465 ± 0.0043 | osmotic coefficient (m1 = 1.262): 0.925 ± 0.0036 | osmotic coefficient (m1 = 1.638): 0.8942 ± 0.0068 | osmotic coefficient (m1 = 2.236): 0.852 ± 0.015 | osmotic coefficient (m1 = 2.588): 0.8295 ± 0.0074 | osmotic coefficient (m1 = 3.693): 0.768 ± 0.009 | osmotic coefficient (m1 = 4.687): 0.72 ± 0.011 | osmotic coefficient (m1 = 6.292): 0.652 ± 0.014 | osmotic coefficient (m1 = 9.635): 0.535 ± 0.018 | osmotic coefficient (m1 = 14.92): 0.375 ± 0.03

O=C(O)CC(=O)O [propanedioic acid] + O
osmotic coefficient (m1 = 0.1216): 1.144 ± 0.0083 | osmotic coefficient (m1 = 0.3009): 0.456 ± 0.022 | osmotic coefficient (m1 = 0.5079): 0.268 ± 0.029 | osmotic coefficient (m1 = 0.6604): 0.274 ± 0.028 | osmotic coefficient (m1 = 0.7994): 0.314 ± 0.027 | osmotic coefficient (m1 = 1.01): 0.354 ± 0.025 | osmotic coefficient (m1 = 1.08): 0.362 ± 0.026 | osmotic coefficient (m1 = 1.631): 0.373 ± 0.024 | osmotic coefficient (m1 = 2.392): 0.401 ± 0.023 | osmotic coefficient (m1 = 3.127): 0.436 ± 0.022 | osmotic coefficient (m1 = 4.097): 0.455 ± 0.021 | osmotic coefficient (m1 = 5.12): 0.469 ± 0.021 | osmotic coefficient (m1 = 6.369): 0.498 ± 0.019 | osmotic coefficient (m1 = 9.545): 0.525 ± 0.022

O=C(O)C(O)C(O)C(=O)O (centres undefined) [2,3-dihydroxybutanedioic acid] + O
osmotic coefficient (m1 = 0.3554): 0.461 ± 0.023 | osmotic coefficient (m1 = 0.51): 0.382 ± 0.024 | osmotic coefficient (m1 = 0.698): 0.313 ± 0.027 | osmotic coefficient (m1 = 1.074): 0.286 ± 0.028 | osmotic coefficient (m1 = 1.268): 0.285 ± 0.028 | osmotic coefficient (m1 = 1.739): 0.283 ± 0.028 | osmotic coefficient (m1 = 2.361): 0.292 ± 0.03 | osmotic coefficient (m1 = 2.404): 0.292 ± 0.027 | osmotic coefficient (m1 = 3.449): 0.322 ± 0.028 | osmotic coefficient (m1 = 4.311): 0.351 ± 0.025 | osmotic coefficient (m1 = 5.203): 0.379 ± 0.024 | osmotic coefficient (m1 = 6.517): 0.416 ± 0.023 | osmotic coefficient (m1 = 7.737): 0.437 ± 0.022

CCC(=O)O [propanoic acid] + O
osmotic coefficient (m1 = 0.3425): 1.054 ± 0.0037 | osmotic coefficient (m1 = 0.4819): 1.036 ± 0.0046 | osmotic coefficient (m1 = 0.6261): 1.018 ± 0.0035 | osmotic coefficient (m1 = 0.8086): 0.9963 ± 0.0012 | osmotic coefficient (m1 = 1.054): 0.9683 ± 0.0028 | osmotic coefficient (m1 = 1.294): 0.942 ± 0.013 | osmotic coefficient (m1 = 1.796): 0.892 ± 0.013 | osmotic coefficient (m1 = 2.261): 0.851 ± 0.015 | osmotic coefficient (m1 = 2.918): 0.7984 ± 0.0078 | osmotic coefficient (m1 = 4.125): 0.718 ± 0.011 | osmotic coefficient (m1 = 5.45): 0.647 ± 0.014 | osmotic coefficient (m1 = 7.948): 0.549 ± 0.018 | osmotic coefficient (m1 = 8.132): 0.542 ± 0.018 | osmotic coefficient (m1 = 10.51): 0.478 ± 0.02 | osmotic coefficient (m1 = 12.4): 0.438 ± 0.023
